Columns and labels:
Format in all cases: in vivo
[1] = tested on: barnyard grass (Echinochloa crus-galli Beauv.); experiment: Test Example 2: herbicidal effect on paddy field weeds after emergence; conditions: Dosage 5 kg/ha; one-leaved stage; 21 days after treatment
Outline: (§1)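 Weeds in flooded paddy-soil pots were grown to the one-leaved stage, then the soil was treated with the compound solution at a set dosage.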

[2] = tested on: monochoria (Monochoria vaginalis Presl); experiment: as above; conditions: Dosage 5 kg/ha; one-leaved stage; 21 days after treatment
Outline: as §1

[3] = tested on: bulrush (Scirpus juncoides Roxb.); experiment: as above; conditions: Dosage 5 kg/ha; one-leaved stage; 21 days after treatment
Outline: as §1

[4] = tested on: forxtail grass (Alopecurus aequalis var. amurensis Ohwi), Am; experiment: Test Example 4: herbicidal effect on upland weeds after emergence; conditions: dosage 5 kg/ha; sprayed after emergence; judged 14 days after treatment
Outline: (§2)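 Seeds sown in soil and covered. Plants raised to specified leaf stages. Agent with test compound at a prescribed concentration sprayed. Herbicidal effect and crop damage scored after 14 days as weed-killing rate.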

[5] = tested on: bird's eye speedwell (Veronica persica Poir.), Vp; experiment: as above; conditions: dosage 5 kg/ha; sprayed after emergence; judged 14 days after treatment
Outline: as §2

[6] = tested on: cleavers (Galium aparine L.), Ga; experiment: as above; conditions: dosage 5 kg/ha; sprayed after emergence; judged 14 days after treatment
Outline: as §2

[7] = tested on: barnyard grass (Echinochloa crus-galli Beauv.), Ec; experiment: as above; conditions: dosage 5 kg/ha; sprayed after emergence; judged 14 days after treatment
Outline: as §2

[8] = tested on: cocklebur (Xanthium strumarium L.), Xs; experiment: as above; conditions: dosage 5 kg/ha; sprayed after emergence; judged 14 days after treatment
Outline: as §2

[9] = tested on: velvetleaf (Abutilon theophtasti L.), At; experiment: as above; conditions: dosage 5 kg/ha; sprayed after emergence; judged 14 days after treatment
Outline: as §2

soybean plant (So) = experiment: Test Example 3: phytotoxicity to upland crop plants, treatment before emergence; conditions: dosage 5 kg/ha
Outline: (§3)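 Phytotoxicity scores for soybean and wheat were assigned by a set criterion 14 days after a pre-emergence spray of a liquid preparation containing the test compound at a prescribed concentration.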

wheat (Wh) = experiment: as above; conditions: dosage 5 kg/ha
Outline: as §3

[10] = tested on: barnyard grass (Echinochloa crus-galli Beauv.); experiment: Test Example 1: herbicidal effect on paddy field weeds before emergence; conditions: Dosage 5 kg/ha
Outline: (§4)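 Soil in pots is brought to paddy state and seeded with barnyard grass and bulrush; before germination, the soil receives a predetermined dosage of test compound in solution. After twenty-one days, control rate relative to untreated pots is calculated and graded.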

[11] = tested on: bulrush (Scirpus juncoides Roxb.); experiment: as above; conditions: Dosage 5 kg/ha
Outline: as §4

[12] = tested on: forxtail grass (Alopecurus aequalis var. amurensis Ohwi), Am; experiment: Test Example 3: herbicidal effect on upland weeds before emergence; conditions: foxtail grass, dosage 5 kg/ha
Outline: (§5)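 Herbicidal activity was rated from kill rate determined 14 days post-spray, the compound having been applied pre-emergence as a liquid agent.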

[13] = tested on: bird's eye speedwell (Veronica persica Poir.), Vp; experiment: as above; conditions: dosage 5 kg/ha
Outline: as §5

[14] = tested on: cleavers (Galium aparine L.), Ga; experiment: as above; conditions: dosage 5 kg/ha
Outline: as §5

[15] = tested on: barnyard grass (Echinochloa crus-galli Beauv.), Ec; experiment: as above; conditions: dosage 5 kg/ha
Outline: as §5

[16] = tested on: cocklebur (Xanthium strumarium L.), Xs; experiment: as above; conditions: dosage 5 kg/ha
Outline: as §5

[17] = tested on: velvetleaf (Abutilon theophtasti L.), At; experiment: as above; conditions: dosage 5 kg/ha
Outline: as §5

wheat = experiment: Test Example 4: phytotoxicity to upland crop plants, treatment after emergence; conditions: dosage 5 kg/ha, sprayed after emergence, judged 14 days after treatment
Outline: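 Upland weeds and crop plants (soybean, wheat) are grown from seed in soil until they reach given leaf stages, then treated by spraying with the compound-containing agent; effects are judged two weeks later.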

soybean plant = experiment: as above; conditions: dosage 5 kg/ha, sprayed after emergence, judged 14 days after treatment
Outline: as §2

CCCNC(=O)c1nc2ncn(C)c2cc1C(=O)Nc1c(CC)ccc(Cl)c1CC [compound 1209]
Post-emergence treatment Barnyard grass (herbicidal effect) [1]: 5 (Weed-killing rate is 100%.)
Post-emergence treatment Monochoria (herbicidal effect) [2]: 5 (Weed-killing rate is 100%.)
Post-emergence treatment Bulrush (herbicidal effect) [3]: 5 (Weed-killing rate is 100%.)
Herbicidal effect Am [4]: 5 (Weed-killing rate is 100%.)
Herbicidal effect Vp [5]: 5 (Weed-killing rate is 100%.)
Herbicidal effect Ga [6]: 5 (Weed-killing rate is 100%.)
Herbicidal effect Ec [7]: 5 (Weed-killing rate is 100%.)
Herbicidal effect Xs [8]: 5 (Weed-killing rate is 100%.)
Herbicidal effect At [9]: 5 (Weed-killing rate is 100%.)
Phytotoxicity So (soybean plant (So)): 5 (Crop-killing rate is 100%.)
Phytotoxicity Wh (wheat (Wh)): 5 (Crop-killing rate is 100%.)
Pre-emergence treatment Barnyard grass (herbicidal effect) [10]: 5 (Weed-killing rate is 100%.)
Pre-emergence treatment Bulrush (herbicidal effect) [11]: 5 (Weed-killing rate is 100%.)
Herbicidal effect Am [12]: 5 (Weed-killing rate is 100%.)
Herbicidal effect Vp [13]: 5 (Weed-killing rate is 100%.)
Herbicidal effect Ga [14]: 5 (Weed-killing rate is 100%.)
Herbicidal effect Ec [15]: 5 (Weed-killing rate is 100%.)
Herbicidal effect Xs [16]: 5 (Weed-killing rate is 100%.)
Herbicidal effect At [17]: 5 (Weed-killing rate is 100%.)
Phytotoxicity Wh (wheat): 5 (Crop-killing rate is 100%.)
Phytotoxicity So (soybean plant): 5 (Crop-killing rate is 100%.)

CCCNC(=O)c1nc2nc(C)n(C)c2cc1C(=O)Nc1c(CC)ccc(Cl)c1CC [compound 1233]
Post-emergence treatment Barnyard grass (herbicidal effect) [1]: 5 (Weed-killing rate is 100%.)
Post-emergence treatment Monochoria (herbicidal effect) [2]: 5 (Weed-killing rate is 100%.)
Post-emergence treatment Bulrush (herbicidal effect) [3]: 5 (Weed-killing rate is 100%.)
Herbicidal effect Am [4]: 5 (Weed-killing rate is 100%.)
Herbicidal effect Vp [5]: 5 (Weed-killing rate is 100%.)
Herbicidal effect Ga [6]: 5 (Weed-killing rate is 100%.)
Herbicidal effect Ec [7]: 5 (Weed-killing rate is 100%.)
Herbicidal effect Xs [8]: 5 (Weed-killing rate is 100%.)
Herbicidal effect At [9]: 5 (Weed-killing rate is 100%.)
Phytotoxicity So (soybean plant (So)): 5 (Crop-killing rate is 100%.)
Phytotoxicity Wh (wheat (Wh)): 5 (Crop-killing rate is 100%.)
Pre-emergence treatment Barnyard grass (herbicidal effect) [10]: 5 (Weed-killing rate is 100%.)
Pre-emergence treatment Bulrush (herbicidal effect) [11]: 5 (Weed-killing rate is 100%.)
Herbicidal effect Am [12]: 5 (Weed-killing rate is 100%.)
Herbicidal effect Vp [13]: 5 (Weed-killing rate is 100%.)
Herbicidal effect Ga [14]: 5 (Weed-killing rate is 100%.)
Herbicidal effect Ec [15]: 5 (Weed-killing rate is 100%.)
Herbicidal effect Xs [16]: 5 (Weed-killing rate is 100%.)
Herbicidal effect At [17]: 5 (Weed-killing rate is 100%.)
Phytotoxicity Wh (wheat): 5 (Crop-killing rate is 100%.)
Phytotoxicity So (soybean plant): 5 (Crop-killing rate is 100%.)

CCCNC(=O)c1nc2ocnc2cc1C(=O)Nc1c(CC)ccc(Cl)c1CC [compound 1245]
Post-emergence treatment Barnyard grass (herbicidal effect) [1]: 5 (Weed-killing rate is 100%.)
Post-emergence treatment Monochoria (herbicidal effect) [2]: 5 (Weed-killing rate is 100%.)
Post-emergence treatment Bulrush (herbicidal effect) [3]: 5 (Weed-killing rate is 100%.)
Herbicidal effect Am [4]: 5 (Weed-killing rate is 100%.)
Herbicidal effect Vp [5]: 5 (Weed-killing rate is 100%.)
Herbicidal effect Ga [6]: 5 (Weed-killing rate is 100%.)
Herbicidal effect Ec [7]: 5 (Weed-killing rate is 100%.)
Herbicidal effect Xs [8]: 5 (Weed-killing rate is 100%.)
Herbicidal effect At [9]: 5 (Weed-killing rate is 100%.)
Phytotoxicity So (soybean plant (So)): 5 (Crop-killing rate is 100%.)
Phytotoxicity Wh (wheat (Wh)): 5 (Crop-killing rate is 100%.)
Pre-emergence treatment Barnyard grass (herbicidal effect) [10]: 5 (Weed-killing rate is 100%.)
Pre-emergence treatment Bulrush (herbicidal effect) [11]: 5 (Weed-killing rate is 100%.)
Herbicidal effect Am [12]: 5 (Weed-killing rate is 100%.)
Herbicidal effect Vp [13]: 5 (Weed-killing rate is 100%.)
Herbicidal effect Ga [14]: 5 (Weed-killing rate is 100%.)
Herbicidal effect Ec [15]: 5 (Weed-killing rate is 100%.)
Herbicidal effect Xs [16]: 5 (Weed-killing rate is 100%.)
Herbicidal effect At [17]: 5 (Weed-killing rate is 100%.)
Phytotoxicity Wh (wheat): 5 (Crop-killing rate is 100%.)
Phytotoxicity So (soybean plant): 5 (Crop-killing rate is 100%.)

CCCNC(=O)c1nc2c(cc1C(=O)Nc1c(CC)ccc(Cl)c1CC)ncn2C [compound 1269]
Post-emergence treatment Barnyard grass (herbicidal effect) [1]: 5 (Weed-killing rate is 100%.)
Post-emergence treatment Monochoria (herbicidal effect) [2]: 5 (Weed-killing rate is 100%.)
Post-emergence treatment Bulrush (herbicidal effect) [3]: 5 (Weed-killing rate is 100%.)
Herbicidal effect Am [4]: 5 (Weed-killing rate is 100%.)
Herbicidal effect Vp [5]: 5 (Weed-killing rate is 100%.)
Herbicidal effect Ga [6]: 5 (Weed-killing rate is 100%.)
Herbicidal effect Ec [7]: 5 (Weed-killing rate is 100%.)
Herbicidal effect Xs [8]: 5 (Weed-killing rate is 100%.)
Herbicidal effect At [9]: 5 (Weed-killing rate is 100%.)
Phytotoxicity So (soybean plant (So)): 4 (Crop-killing rate is 90-99%.)
Phytotoxicity Wh (wheat (Wh)): 5 (Crop-killing rate is 100%.)
Pre-emergence treatment Barnyard grass (herbicidal effect) [10]: 5 (Weed-killing rate is 100%.)
Pre-emergence treatment Bulrush (herbicidal effect) [11]: 5 (Weed-killing rate is 100%.)
Herbicidal effect Am [12]: 5 (Weed-killing rate is 100%.)
Herbicidal effect Vp [13]: 5 (Weed-killing rate is 100%.)
Herbicidal effect Ga [14]: 5 (Weed-killing rate is 100%.)
Herbicidal effect Ec [15]: 5 (Weed-killing rate is 100%.)
Herbicidal effect Xs [16]: 5 (Weed-killing rate is 100%.)
Herbicidal effect At [17]: 5 (Weed-killing rate is 100%.)
Phytotoxicity Wh (wheat): 5 (Crop-killing rate is 100%.)
Phytotoxicity So (soybean plant): 4 (Crop-killing rate is 90-99%.)

From US6444617B1, “Fused-heterocycle dicarboxylic acid diamide derivatives or salts thereof, herbicide and usage thereof” (Nihon Nohyaku Co., Ltd., priority 1998, dated 2002)
